ChEMBL document CHEMBL4265872, “Around the macrolide - Impact of 3D structure of macrocycles on lipophilicity and cellular accumulation” (Eur J Med Chem, 2017)

How the values were obtained:
[1] = Chromatographic hydrophobicity, logD of the compound at pH 7.4 by fast-gradient RP-HPLC method; assay type: physicochemical; conditions: buffer
[2] = Drug accumulation in human NCI-H292 cells at 3 to 10 uM incubated for 3 hrs by LC-MS analysis relative to azithromycin; assay type: ADME, cell-based; conditions: nci-h292, 3 h

SMILES | chromatographic logD [1] | Drug uptake [2]
CC[C@H]1OC(=O)[C@H](C)[C@@H](O[C@H]2C[C@@](C)(OC)[C@@H](OC(=O)CN(CC)CC)[C@H](C)O2)[C@H](C)[C@@H](O[C@@H]2O[C@H](C)C[C@H](N(C)C)[C@H]2O)[C@](C)(OC)C[C@@H](C)C(=O)N[C@H](C)[C@@H](O)[C@]1(C)O | 3.86 | 121%
CC[C@H]1OC(=O)[C@H](C)[C@@H](O[C@H]2C[C@@](C)(OC)[C@@H](O)[C@H](C)O2)[C@H](C)[C@@H](O[C@@H]2O[C@H](C)C[C@H](N(C)C)[C@H]2O)[C@](C)(OC)C[C@@H](C)/C(=N\O)[C@H](C)[C@@H](O)[C@]1(C)O | 3.61 | 48%
CC[C@H]1OC(=O)[C@H](C)[C@@H](O[C@H]2C[C@@](C)(OC)[C@@H](O)[C@H](C)O2)[C@H](C)[C@@H](O[C@@H]2O[C@H](C)C[C@H](N(C)C)[C@H]2O)[C@](C)(O)C[C@@H](C)CN(CCCNC(=O)C2CCC2)[C@H](C)[C@@H](O)[C@]1(C)O | 2.31 | 0%
CC[C@H]1OC(=O)[C@H](C)[C@@H](O[C@H]2C[C@@](C)(OC)[C@@H](O)[C@H](C)O2)[C@H](C)[C@@H](O[C@@H]2O[C@H](C)C[C@H](N(C)C)[C@H]2O)[C@](C)(O)C[C@@H](C)CN(C)[C@H](C)[C@@H](OCCCNC(=O)COC)[C@]1(C)O | 2.58 | 26%
CC[C@H]1OC(=O)[C@H](C)[C@@H](OCCCNC(=O)C2CCC2)[C@H](C)[C@@H](O[C@@H]2O[C@H](C)C[C@H](N(C)C)[C@H]2O)[C@](C)(O)C[C@@H](C)CN(C)[C@H](C)[C@@H](O)[C@]1(C)O | 1.78 | 21%
CCCCC(=O)NCCCN1C[C@H](C)C[C@@](C)(O)[C@H](O[C@@H]2O[C@H](C)C[C@H](N(C)C)[C@H]2O)[C@@H](C)[C@H](O[C@H]2C[C@@](C)(OC)[C@@H](O)[C@H](C)O2)[C@@H](C)C(=O)O[C@H](CC)[C@@](C)(O)[C@H](O)[C@H]1C | 2.72 | 7%
CCCCC(=O)NCCCO[C@@H]1[C@@H](C)N(C)C[C@H](C)C[C@@](C)(O)[C@H](O[C@@H]2O[C@H](C)C[C@H](N(C)C)[C@H]2O)[C@@H](C)[C@H](O[C@H]2C[C@@](C)(OC)[C@@H](O)[C@H](C)O2)[C@@H](C)C(=O)O[C@H](CC)[C@@]1(C)O | 3.74 | 756%
CC[C@H]1OC(=O)[C@H](C)[C@@H](O[C@H]2C[C@@](C)(OC)[C@@H](O)[C@H](C)O2)[C@H](C)[C@@H](O[C@@H]2O[C@H](C)C[C@H](N(C)C)[C@H]2O)[C@](C)(OC)C[C@@H](C)/C(=N\O)[C@H](C)[C@@H](O)[C@]1(C)OCCCNC(C)=O | 2.94 | 9%
CC[C@H]1OC(=O)[C@H](C)[C@@H](O[C@H]2C[C@@](C)(OC)[C@@H](O)[C@H](C)O2)[C@H](C)[C@@H](O[C@@H]2O[C@H](C)C[C@H](N(C)CCCNC(C)=O)[C@H]2O)[C@](C)(OC)C[C@@H](C)C(=O)[C@H](C)[C@@H](O)[C@]1(C)O | 3.08 | 27%
CC[C@H]1OC(=O)[C@H](C)[C@@H](O[C@H]2C[C@@](C)(OC)[C@@H](OCCCNC(=O)C3CCC3)[C@H](C)O2)[C@H](C)[C@@H](O[C@@H]2O[C@H](C)C[C@H](N(C)C)[C@H]2O)[C@](C)(O)C[C@@H](C)CN(C)[C@H](C)[C@@H](O)[C@]1(C)O | 2.62 | 51%
CCCCCCCC(=O)NCCCO[C@H]1[C@H](C)O[C@@H](O[C@H]2[C@H](C)[C@@H](O[C@@H]3O[C@H](C)C[C@H](N(C)C)[C@H]3O)[C@](C)(O)C[C@@H](C)CN(C)[C@H](C)[C@@H](O)[C@](C)(O)[C@@H](CC)OC(=O)[C@@H]2C)C[C@@]1(C)OC | 4.1 | 357%
CCCCCCCC(=O)NCCCN1C[C@H](C)C[C@@](C)(O)[C@H](O)[C@@H](C)[C@H](O)[C@@H](C)C(=O)O[C@H](CC)[C@@](C)(O)[C@H](O)[C@H]1C | 3.49 | 63%
CC[C@H]1OC(=O)[C@H](C)[C@@H](O[C@H]2C[C@@](C)(OC)[C@@H](O)[C@H](C)O2)[C@H](C)[C@@H](O[C@@H]2O[C@H](C)C[C@H](N(C)C)[C@H]2O)[C@](C)(O)C[C@@H](C)CN(CCCNC(=O)COC)[C@H](C)[C@@H](O)[C@]1(C)O | – | 2%
CC[C@H]1OC(=O)[C@H](C)[C@@H](O[C@H]2C[C@@](C)(OC)[C@@H](OCCCNC(C)=O)[C@H](C)O2)[C@H](C)[C@@H](O[C@@H]2O[C@H](C)C[C@H](N(C)C)[C@H]2O)[C@](C)(OC)C[C@@H](C)C(=O)[C@H](C)[C@@H](O)[C@]1(C)O | 3.08 | 30%
CCC(=O)NCCCN1C[C@H](C)C[C@@](C)(O)[C@H](O[C@@H]2O[C@H](C)C[C@H](N(C)C)[C@H]2O)[C@@H](C)[C@H](O[C@H]2C[C@@](C)(OC)[C@@H](O)[C@H](C)O2)[C@@H](C)C(=O)O[C@H](CC)[C@@](C)(O)[C@H](O)[C@H]1C | 1.86 | 0%
CCCCCCCC(=O)NCCCO[C@@H]1[C@@H](C)C(=O)[C@H](C)C[C@@](C)(OC)[C@H](O[C@@H]2O[C@H](C)C[C@H](N(C)C)[C@H]2O)[C@@H](C)[C@H](O[C@H]2C[C@@](C)(OC)[C@@H](O)[C@H](C)O2)[C@@H](C)C(=O)O[C@H](CC)[C@@]1(C)O | 5.07 | 575%
CC[C@H]1OC(=O)[C@H](C)[C@@H](OCCCNC(=O)c2c(C)nn(C)c2Cl)[C@H](C)[C@@H](O[C@@H]2O[C@H](C)C[C@H](N(C)C)[C@H]2O)[C@](C)(O)C[C@@H](C)CN(C)[C@H](C)[C@@H](O)[C@]1(C)O | – | 59%
CC[C@H]1OC(=O)[C@H](C)[C@@H](O[C@H]2C[C@@](C)(OC)[C@@H](OCCCNC(=O)c3c(C)nn(C)c3Cl)[C@H](C)O2)[C@H](C)[C@@H](O[C@@H]2O[C@H](C)C[C@H](N(C)C)[C@H]2O)[C@](C)(O)C[C@@H](C)CN(C)[C@H](C)[C@@H](O)[C@]1(C)O | 2.52 | 60%
CC[C@H]1OC(=O)[C@H](C)[C@@H](O[C@H]2C[C@@](C)(OC)[C@@H](O)[C@H](C)O2)[C@H](C)[C@@H](O[C@@H]2O[C@H](C)C[C@H](N(C)C)[C@H]2OCCCNC(=O)C2CCC2)[C@](C)(O)C[C@@H](C)CN(C)[C@H](C)[C@@H](O)[C@]1(C)O | 3.16 | 124%
CC[C@H]1OC(=O)[C@H](C)[C@@H](O[C@H]2C[C@@](C)(OC)[C@@H](O)[C@H](C)O2)[C@H](C)[C@@H](O[C@@H]2O[C@H](C)C[C@H](N(C)C)[C@H]2O)[C@](C)(O)C[C@@H](C)CN(CCCNC(C)=O)[C@H](C)[C@@H](O)[C@]1(C)O | 2.06 | 1%
CC[C@H]1OC(=O)[C@H](C)[C@@H](O[C@H]2C[C@@](C)(OC)[C@@H](O)[C@H](C)O2)[C@H](C)[C@@H](O[C@@H]2O[C@H](C)C[C@H](N(C)C)[C@H]2O)[C@](C)(O)C[C@@H](C)CN(C)[C@H](C)[C@@H](OCCCNC(=O)C2CCC2)[C@]1(C)O | 3.5 | 138%
CC[C@H]1OC(=O)[C@H](C)[C@@H](O)[C@H](C)[C@@H](O[C@@H]2O[C@H](C)C[C@H](N(C)C)[C@H]2O)[C@](C)(OC)C[C@@H](C)/C(=N\O)[C@H](C)[C@@H](O)[C@]1(C)O | 2.31 | 17%
CC[C@H]1OC(=O)[C@H](C)[C@@H](O[C@H]2C[C@@](C)(OC)[C@@H](OCCCNC(=O)COC)[C@H](C)O2)[C@H](C)[C@@H](O[C@@H]2O[C@H](C)C[C@H](N(C)C)[C@H]2O)[C@](C)(O)C[C@@H](C)CN(C)[C@H](C)[C@@H](O)[C@]1(C)O | 2.16 | 9%
CC[C@H]1OC(=O)[C@H](C)[C@@H](O[C@H]2C[C@@](C)(OC)[C@@H](O)[C@H](C)O2)[C@H](C)[C@@H](O[C@@H]2O[C@H](C)C[C@H](N(C)C)[C@H]2O)[C@](C)(O)C[C@@H](C)CN(C)[C@H](C)[C@@H](OCCCNC(C)=O)[C@]1(C)O | 2.41 | 7%
CCCCCCCC(=O)NCCCN(C)[C@H]1C[C@@H](C)O[C@@H](O[C@@H]2[C@@H](C)[C@H](O[C@H]3C[C@@](C)(OC)[C@@H](O)[C@H](C)O3)[C@@H](C)C(=O)O[C@H](CC)[C@@](C)(O)[C@H](O)[C@@H](C)C(=O)[C@H](C)C[C@@]2(C)OC)[C@@H]1O | 6.44 | 363%
CC[C@H]1OC(=O)[C@H](C)[C@@H](O[C@H]2C[C@@](C)(OC)[C@@H](O)[C@H](C)O2)[C@H](C)[C@@H](O[C@@H]2O[C@H](C)C[C@H](N(C)C)[C@H]2O)[C@](C)(O)C[C@@H](C)CN(C)[C@H](C)[C@@H](OCCCNC(=O)c2c(C)nn(C)c2Cl)[C@]1(C)O | 3.01 | 51%
CC[C@H]1OC(=O)[C@H](C)[C@@H](O[C@H]2C[C@@](C)(OC)[C@@H](O)[C@H](C)O2)[C@H](C)[C@@H](O[C@@H]2O[C@H](C)C[C@H](N(C)C)[C@H]2O)[C@](C)(OC)C[C@@H](C)C(=O)[C@H](C)[C@@H](OCCCNC(C)=O)[C@]1(C)O | 2.72 | 11%
CC[C@H]1OC(=O)[C@H](C)[C@@H](OCCCNC(=O)COC)[C@H](C)[C@@H](O[C@@H]2O[C@H](C)C[C@H](N(C)C)[C@H]2O)[C@](C)(O)C[C@@H](C)CN(C)[C@H](C)[C@@H](O)[C@]1(C)O | 1.4 | 14%
CC[C@H]1OC(=O)[C@H](C)[C@@H](O[C@H]2C[C@@](C)(OC)[C@@H](OCCCNC(C)=O)[C@H](C)O2)[C@H](C)[C@@H](O[C@@H]2O[C@H](C)C[C@H](N(C)C)[C@H]2O)[C@](C)(O)C[C@@H](C)CN(C)[C@H](C)[C@@H](O)[C@]1(C)O | 2.06 | 6%
CC[C@H]1OC(=O)[C@H](C)[C@@H](O[C@H]2C[C@@](C)(OC)[C@@H](O)[C@H](C)O2)[C@H](C)[C@@H](O[C@@H]2O[C@H](C)C[C@H](N(C)C)[C@H]2O)[C@](C)(OC)C[C@@H](C)C(=O)N[C@H](C)[C@@H](O)[C@]1(C)O | 2.41 | 10%
